Results published in PubChem BioAssay (NCI).
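Protocol summary: plate cells (96-well), add compound at 5 concentrations, incubate 48 h, interpolate endpoints linearly. GI50 marks 50% less growth. TGI marks complete inhibition of growth.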

Legend:
Assay in all cases: growth of human tumour cells (NCI), 48 h
ACHN renal = test system: ACHN renal
CAKI-1 renal = test system: CAKI-1 renal
SN12C renal = test system: SN12C renal
A498 renal = test system: A498 renal
RXF 393 renal = test system: RXF 393 renal
SF-539 CNS = test system: SF-539 CNS
HCT-15 colon = test system: HCT-15 colon
T-47D breast = test system: T-47D breast
SNB-75 CNS = test system: SNB-75 CNS
K-562 leukemia = test system: K-562 leukemia
SF-295 CNS = test system: SF-295 CNS
HOP-62 NSCLC = test system: HOP-62 NSCLC
SNB-19 CNS = test system: SNB-19 CNS
SK-MEL-2 melanoma = test system: SK-MEL-2 melanoma
UACC-257 melanoma = test system: UACC-257 melanoma
MOLT-4 leukemia = test system: MOLT-4 leukemia
CCRF-CEM leukemia = test system: CCRF-CEM leukemia
HL-60(TB) leukemia = test system: HL-60(TB) leukemia
DU-145 prostate = test system: DU-145 prostate
EKVX NSCLC = test system: EKVX NSCLC
RPMI-8226 leukemia = test system: RPMI-8226 leukemia
UACC-62 melanoma = test system: UACC-62 melanoma
IGROV1 ovarian = test system: IGROV1 ovarian
SW-620 colon = test system: SW-620 colon
HT29 colon = test system: HT29 colon
OVCAR-5 ovarian = test system: OVCAR-5 ovarian
OVCAR-3 ovarian = test system: OVCAR-3 ovarian
HS 578T breast = test system: HS 578T breast
BT-549 breast = test system: BT-549 breast
NCI/ADR-RES ovarian = test system: NCI/ADR-RES ovarian
SK-MEL-28 melanoma = test system: SK-MEL-28 melanoma
NCI-H23 lung = test system: NCI-H23 lung
KM12 colon = test system: KM12 colon
MCF7 breast = test system: MCF7 breast
COLO 205 colon = test system: COLO 205 colon
NCI-H226 lung = test system: NCI-H226 lung
SF-268 CNS = test system: SF-268 CNS
MDA-MB-435 = test system: MDA-MB-435
M14 melanoma = test system: M14 melanoma
786-0 renal = test system: 786-0 renal
OVCAR-8 ovarian = test system: OVCAR-8 ovarian
SK-OV-3 ovarian = test system: SK-OV-3 ovarian
HOP-92 NSCLC = test system: HOP-92 NSCLC
NCI-H460 lung = test system: NCI-H460 lung
TK-10 renal = test system: TK-10 renal
PC-3 prostate = test system: PC-3 prostate
LOX IMVI melanoma = test system: LOX IMVI melanoma
SK-MEL-5 melanoma = test system: SK-MEL-5 melanoma
NCI-H522 lung = test system: NCI-H522 lung
UO-31 renal = test system: UO-31 renal
SR leukemia = test system: SR leukemia
MDA-MB-231 breast = test system: MDA-MB-231 breast
OVCAR-4 ovarian = test system: OVCAR-4 ovarian
HCC-2998 colon = test system: HCC-2998 colon
U251 CNS = test system: U251 CNS
HCT-116 colon = test system: HCT-116 colon
A549 NSCLC = test system: A549 NSCLC
MALME-3M melanoma = test system: MALME-3M melanoma

With `C=C(CNCCO)[C@@H]1CC[C@]2(CO)CC[C@]3(C)[C@H](CC[C@@H]4[C@@]5(C)CCC(N)C(C)(C)[C@@H]5CC[C@]43C)[C@@H]12` (stereo partly specified) the GI50 (ACHN renal) was 12.2 µM, the TGI (ACHN renal) was 25 µM and the GI50 (CAKI-1 renal) was 4.86 µM. The TGI (CAKI-1 renal) was 18.1 µM, the GI50 (SN12C renal) was 1.97 µM and the TGI (SN12C renal) was 4.07 µM. The GI50 (A498 renal) was 9.55 µM, the TGI (A498 renal) was 22.6 µM and the GI50 (RXF 393 renal) was 1.53 µM. For the same compound, the TGI (RXF 393 renal) was 3.08 µM, the GI50 (SF-539 CNS) was 1.75 µM and the TGI (SF-539 CNS) was 3.21 µM. For the same compound, the GI50 (HCT-15 colon) was 5.57 µM, the TGI (HCT-15 colon) was 19 µM and the GI50 (T-47D breast) was 2.07 µM. It also gave a TGI (T-47D breast) of 3.95 µM, a GI50 (SNB-75 CNS) of 1.4 µM and a TGI (SNB-75 CNS) of 3.93 µM. For the same compound, the GI50 (K-562 leukemia) was 1.48 µM, the TGI (K-562 leukemia) was 3.33 µM and the GI50 (SF-295 CNS) was 1.73 µM. It also gave a TGI (SF-295 CNS) of 3.52 µM, a GI50 (HOP-62 NSCLC) of 2.79 µM and a TGI (HOP-62 NSCLC) of 7.36 µM. The GI50 (SNB-19 CNS) was 2.27 µM, the TGI (SNB-19 CNS) was 5.23 µM and the GI50 (SK-MEL-2 melanoma) was 1.98 µM. It also gave a TGI (SK-MEL-2 melanoma) of 3.65 µM, a GI50 (UACC-257 melanoma) of 1.8 µM and a TGI (UACC-257 melanoma) of 3.23 µM. For the same compound, the GI50 (MOLT-4 leukemia) was 1.99 µM, the TGI (MOLT-4 leukemia) was 5.84 µM and the GI50 (CCRF-CEM leukemia) was 2.04 µM. It also gave a TGI (CCRF-CEM leukemia) of 5.93 µM, a GI50 (HL-60(TB) leukemia) of 1.89 µM and a TGI (HL-60(TB) leukemia) of 4.1 µM. The GI50 (DU-145 prostate) was 5.1 µM, the TGI (DU-145 prostate) was 16.6 µM and the GI50 (EKVX NSCLC) was 4.59 µM. It also gave a TGI (EKVX NSCLC) of 18.1 µM, a GI50 (RPMI-8226 leukemia) of 2.03 µM and a TGI (RPMI-8226 leukemia) of 4.73 µM. It also gave a GI50 (UACC-62 melanoma) of 1.8 µM, a TGI (UACC-62 melanoma) of 3.36 µM and a GI50 (IGROV1 ovarian) of 6.05 µM. The TGI (IGROV1 ovarian) was 20.8 µM, the GI50 (SW-620 colon) was 1.89 µM and the TGI (SW-620 colon) was 3.75 µM. For the same compound, the GI50 (HT29 colon) was 1.86 µM, the TGI (HT29 colon) was 3.89 µM and the GI50 (OVCAR-5 ovarian) was 5.08 µM. It also gave a TGI (OVCAR-5 ovarian) of 18.1 µM, a GI50 (OVCAR-3 ovarian) of 7.71 µM and a TGI (OVCAR-3 ovarian) of 20.7 µM. For the same compound, the GI50 (HS 578T breast) was 2.33 µM, the TGI (HS 578T breast) was 6.92 µM and the GI50 (BT-549 breast) was 2.07 µM. For the same compound, the TGI (BT-549 breast) was 4.9 µM, the GI50 (NCI/ADR-RES ovarian) was 17 µM and the TGI (NCI/ADR-RES ovarian) was 33.8 µM. For the same compound, the GI50 (SK-MEL-28 melanoma) was 1.96 µM, the TGI (SK-MEL-28 melanoma) was 3.6 µM and the GI50 (NCI-H23 lung) was 4.66 µM. For the same compound, the TGI (NCI-H23 lung) was 17.6 µM, the GI50 (KM12 colon) was 3.4 µM and the TGI (KM12 colon) was 10.1 µM. The GI50 (MCF7 breast) was 1.77 µM, the TGI (MCF7 breast) was 3.57 µM and the GI50 (COLO 205 colon) was 1.73 µM. For the same compound, the TGI (COLO 205 colon) was 3.35 µM, the GI50 (NCI-H226 lung) was 11 µM and the TGI (NCI-H226 lung) was 27.9 µM. It also gave a GI50 (SF-268 CNS) of 2.61 µM, a TGI (SF-268 CNS) of 10.3 µM and a GI50 (MDA-MB-435) of 1.72 µM. For the same compound, the TGI (MDA-MB-435) was 3.3 µM, the GI50 (M14 melanoma) was 2.05 µM and the TGI (M14 melanoma) was 3.97 µM. The GI50 (786-0 renal) was 1.63 µM, the TGI (786-0 renal) was 3.31 µM and the GI50 (OVCAR-8 ovarian) was 1.82 µM. It also gave a TGI (OVCAR-8 ovarian) of 3.74 µM, a GI50 (SK-OV-3 ovarian) of 11.1 µM and a TGI (SK-OV-3 ovarian) of 23.3 µM. The GI50 (HOP-92 NSCLC) was 1.29 µM, the TGI (HOP-92 NSCLC) was 2.76 µM and the GI50 (NCI-H460 lung) was 1.94 µM. For the same compound, the TGI (NCI-H460 lung) was 4.12 µM, the GI50 (TK-10 renal) was 2.54 µM and the TGI (TK-10 renal) was 7.07 µM. For the same compound, the GI50 (PC-3 prostate) was 2.36 µM, the TGI (PC-3 prostate) was 11.2 µM and the GI50 (LOX IMVI melanoma) was 1.7 µM. The TGI (LOX IMVI melanoma) was 3.2 µM, the GI50 (SK-MEL-5 melanoma) was 1.73 µM and the TGI (SK-MEL-5 melanoma) was 3.18 µM. It also gave a GI50 (NCI-H522 lung) of 1.93 µM, a TGI (NCI-H522 lung) of 3.7 µM and a GI50 (UO-31 renal) of 13.2 µM. It also gave a TGI (UO-31 renal) of 26.8 µM, a GI50 (SR leukemia) of 1.9 µM and a TGI (SR leukemia) of 5.22 µM. It also gave a GI50 (MDA-MB-231 breast) of 1.52 µM, a TGI (MDA-MB-231 breast) of 3.14 µM and a GI50 (OVCAR-4 ovarian) of 3.42 µM. It also gave a TGI (OVCAR-4 ovarian) of 13.6 µM, a GI50 (HCC-2998 colon) of 1.98 µM and a TGI (HCC-2998 colon) of 3.81 µM. The GI50 (U251 CNS) was 1.55 µM, the TGI (U251 CNS) was 2.89 µM and the GI50 (HCT-116 colon) was 1.81 µM. For the same compound, the TGI (HCT-116 colon) was 3.84 µM, the GI50 (A549 NSCLC) was 2.41 µM and the TGI (A549 NSCLC) was 6.69 µM. The GI50 (MALME-3M melanoma) was 1.58 µM and the TGI (MALME-3M melanoma) was 3.11 µM.
